Values after ≈ are worked out from the molar mass of the structure shown.
Key:
barnacle A. amphitrite = system: barnacle A. amphitrite; design: method as in ref 30 = [30]; 30 J. A. Ponasik , S. Conova , D. Kinghorn , W. A. Kinney , D. Rittschof , and B. Ganem , “ Pseudoceratidine, a Marine Natural Product with Antifouling Activity: Synthetic and Biological Studies ,” Te; conditions: cited from earlier work
[1] = system: cypris larvae of the barnacle Amphibalanus amphitrite; assay: Antifouling (settlement inhibition) assay against barnacle cypris larvae; assay type: in vivo; conditions: 96 h; for EC50: Amphibalanus amphitrite; for EC50 / Antifouling activity EC50: cypris larvae, 24‐well plates, 25°C, dark, concentration reducing larval settlement to 50% of negative control; for Antifouling (settlement‐inhibitory) activity in words: up to 50 µg/mL
Description: First, the biological activities of xylemin (1) and its related compounds were assayed against the cypris larvae of the barnacle A. amphitrite. The larvae were treated using 24‐well polystyrene plates with 6 different concentrations of the compounds at 25°C in the dark for 96 h.
Evaluation of the biological activity and statistical analysis were conducted according to the previous work. Adult barnacles of A. amphitrite attached to stones were collected in Kobe, Japan, in 2023 and maintained in aquaria. Nauplii released from adults were cultured in filtered seawater (FSW) with penicillin/streptomycin (FUJIFILM Wako Pure Chemical Corp., Osaka, Japan) and fed Chaetoceros calcitrans at 25°C, under a 12 h light/12 h dark cycle. The larvae reached the cypris stage after 5–6 days. Cyprids were collected, rinsed with FSW, and stored in the dark at 5°C for 3–4 days until use. The effects of the compounds on barnacle cyprids were evaluated using 24‐well polystyrene plates (Corning Inc., Corning, NY, USA). Each compound was dissolved in MeOH, and the solution was diluted with the same solvent to concentrations of 0.01, 0.03, 0.1, 0.3, 1.0, and 5.0 µg/µL. Aliquots (10 µL) of the solutions were added to the wells of the polystyrene plates and air‐dried. Each well was charged with approximately ten cypris larvae and FSW (1.0 mL). The plates were incubated at 25°C in the dark for 96 h. […] Each concentration was tested in three wells, and the experiment was performed three times with different batches of larvae. The assay was conducted using CuSO4 (0.01, 0.03, 0.1, 0.3, 1.0, 3.0, and 10 µg) as a positive control. An assay without any compound was used as a negative control. Settlement inhibition was calculated based on negative control settlement. Antifouling activity (EC50) and toxicity (LC50) were calculated using probit analyses. EC50 indicates the concentration that reduces the larval settlement to 50% of the negative control. LC50 indicates the concentration that causes 50% mortality.

[2] = system: thermospermine synthase ACAULIS5 (ACL5); design: method as in ref 25 = [25]; 25 H. Takamura , H. Motose , T. Otsu , et al., “ Chemical Synthesis and Biological Effect on Xylem Formation of Xylemin and Its Analogues ,” European Journal of Organic Chemistry 2020 ( 2020 ): 2745 –; conditions: cited from earlier work
xylem formation = system: xylem formation; design: method as in PMID 26879262; conditions: cited from earlier work
[3] = system: zooplankton Artenia larvae; design: method as in PMID 27919420; conditions: cited from earlier work

Compound	EC50 [1] [µg/mL]	Antifouling (settlement‐inhibitory) activity in words [1]	also measured
O=C(O)c1cc(Br)c(Br)[nH]1 [4,5‐dibromopyrrole‐2‐carboxylic acid]			Antifouling activity EC50 (barnacle A. amphitrite): 15 µg/mL
CCCNCCCCN [Compound 1, N‐(4‐aminobutyl)propylamine]	4.25 (≈ 32.6 µM)		Expression of ACL5 [2]: promoted the expression; Xylem formation / differentiation (xylem formation): enhanced xylem formation
CCCNCCCCNC(=O)OC(C)(C)C [Compound 2]	6.11 (≈ 26.5 µM)		
CCC(CC)NCCCCN [Compound 3, N‐(4‐aminobutyl)‐1‐ethylpropylamine]	> 50		
NCCCCNC1CCCC1 [Compound 4, N‐(4‐aminobutyl)cyclopentylamine]	> 50	no inhibitory activity	Xylem formation / differentiation (xylem formation): significant activity in promoting xylem differentiation
NCCCCNC1CCCCC1 [Compound 5, N‐(4‐aminobutyl)cyclohexylamine]	> 50	lacked antifouling activity	
NCCCCNC1CCCCCC1 [Compound 6, N‐(4‐aminobutyl)cycloheptylamine]	> 50	lacked antifouling activity	
NCCCCN [Compound 7, putrescine, reference compound]	> 50	non‐antifouling activity	
NCCCCNCCCN [Compound 8, spermidine, reference compound]		did not exhibit antifouling activity	Antifouling activity EC50 [1]: >50 µg/mL
NCCCNCCCCNCCCN [Compound 9, spermine, reference compound]			Antifouling activity EC50 [1]: >50 µg/mL
NCCCCNCCCNCCCN [Compound 10, thermospermine, reference compound]			Antifouling activity EC50 [1]: >50 µg/mL
CN(C)C(=O)Nc1ccc(Cl)c(Cl)c1 [Diuron]			LC50 (50% lethal concentration) [3]: 30.6 mg/L (≈ 131 µM)
NCCCCNC1CCCC1 [N‐(4‐aminobutyl)cyclopentylamine]			Expression of ACL5 [2]: promoted the expression; Xylem formation / differentiation (xylem formation): enhanced xylem formation
NCCCCNCCCN [spermidine]	> 50		
NCCCNCCCCNCCCN [spermine]	> 50		
NCCCCNCCCNCCCN [thermospermine]	> 50		
